Data published in the supplement of paper PMC10307832.

Columns and labels:
Assay in all cases: relative viability (nuclei count vs DMSO), 5 days (fraction); higher = more cells survive
Ispinesib + Olaparib = compound: Cc1ccc(C(=O)N(CCCN)[C@@H](c2nc3cc(Cl)ccc3c(=O)n2Cc2ccccc2)C(C)C)cc1 [Ispinesib] + O=C(c1cc(Cc2n[nH]c(=O)c3ccccc23)ccc1F)N1CCN(C(=O)C2CC2)CC1 [Olaparib] (partner 8 µM)
In short: (§1)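 One day after seeding in 1536-well plates, lung cancer cell lines were dosed by pin tool. Dosing was either single-drug or a fixed anchor-drug dose plus five library-drug doses (not always all listed) in √10 steps. After 5 days, nuclei were stained in one fix-and-stain step and counted on 4× images, and relative viability is the nuclei count of treated wells over that of vehicle wells, given as the median of duplicate plates.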

Linsitinib + Alpelisib = compound: C[C@]1(O)C[C@@H](c2nc(-c3ccc4ccc(-c5ccccc5)nc4c3)c3c(N)nccn32)C1 [Linsitinib] + Cc1nc(NC(=O)N2CCC[C@H]2C(N)=O)sc1-c1ccnc(C(C)(C)C(F)(F)F)c1 [Alpelisib] (partner 2 µM)
In short: as §1

Ispinesib + Navitoclax = compound: Cc1ccc(C(=O)N(CCCN)[C@@H](c2nc3cc(Cl)ccc3c(=O)n2Cc2ccccc2)C(C)C)cc1 [Ispinesib] + CC1(C)CCC(c2ccc(Cl)cc2)=C(CN2CCN(c3ccc(C(=O)NS(=O)(=O)c4ccc(N[C@H](CCN5CCOCC5)CSc5ccccc5)c(S(=O)(=O)C(F)(F)F)c4)cc3)CC2)C1 [Navitoclax] (partner 0.5 µM)
In short: as §1

Linsitinib + Tozasertib = compound: C[C@]1(O)C[C@@H](c2nc(-c3ccc4ccc(-c5ccccc5)nc4c3)c3c(N)nccn32)C1 [Linsitinib] + Cc1cc(Nc2cc(N3CCN(C)CC3)nc(Sc3ccc(NC(=O)C4CC4)cc3)n2)n[nH]1 [Tozasertib] (partner 0.1 µM)
In short: as §1

Cell Line | relative viability (Ispinesib + Olaparib; first compound 0.001 µM) | relative viability (Ispinesib + Olaparib; first compound 0.003162 µM) | relative viability (Ispinesib + Olaparib; first compound 0.01 µM) | relative viability (Ispinesib + Olaparib; first compound 0.03162 µM) | relative viability (Ispinesib + Olaparib; first compound 0.1 µM) | relative viability (Linsitinib + Alpelisib; first compound 0.01 µM) | relative viability (Linsitinib + Alpelisib; first compound 0.03162 µM) | relative viability (Linsitinib + Alpelisib; first compound 0.1 µM) | relative viability (Linsitinib + Alpelisib; first compound 0.3162 µM) | relative viability (Linsitinib + Alpelisib; first compound 1 µM) | relative viability (Ispinesib + Navitoclax; first compound 0.001 µM) | relative viability (Ispinesib + Navitoclax; first compound 0.003162 µM) | relative viability (Ispinesib + Navitoclax; first compound 0.01 µM) | relative viability (Ispinesib + Navitoclax; first compound 0.03162 µM) | relative viability (Ispinesib + Navitoclax; first compound 0.1 µM) | relative viability (Linsitinib + Tozasertib; first compound 0.01 µM) | relative viability (Linsitinib + Tozasertib; first compound 0.03162 µM) | relative viability (Linsitinib + Tozasertib; first compound 0.1 µM) | relative viability (Linsitinib + Tozasertib; first compound 0.3162 µM) | relative viability (Linsitinib + Tozasertib; first compound 1 µM)
NCI-H2170 | 0.593 | 0.679 | 0.651 | 0.481 | 0.444 | 0.865 | 0.777 | 0.698 | 0.745 | 0.68 | 0.617 | 0.61 | 0.624 | 0.324 | 0.258 | 0.732 | 0.76 | 0.681 | 0.513 | 0.678
NCI-H1666 | 0.756 | 0.801 | 0.702 | 0.713 | 0.663 | 0.847 | 0.869 | 0.769 | 0.452 | 0.477 | 0.987 | 0.876 | 0.945 | 0.527 | 0.25 | 0.595 | 0.628 | 0.587 | 0.545 | 0.434
PC-3 [JPC-3] | 1.23 | 1.31 | 0.887 | 1.12 | 0.541 | 1.03 | 1.05 | 1.03 | 1.02 | 0.924 | 0.826 | 0.875 | 0.782 | 0.797 | 0.784 | 0.87 | 0.911 | 0.904 | 0.777 | 0.793
NCI-H1755 | 0.909 | 0.928 | 0.963 | 0.987 | 0.759 | 0.938 | 0.875 | 0.961 | 0.78 | 0.896 | 1.01 | 1.15 | 1.09 | 0.917 | 0.7 | 0.585 | 0.587 | 0.569 | 0.375 | 0.514
RERF-LC-KJ | 0.934 | 0.791 | 0.427 | 0.22 | 0.328 | 0.838 | 0.9 | 0.832 | 0.878 | 0.757 | 1.17 | 0.997 | 1.01 | 0.74 | 0.369 | 0.508 | 0.558 | 0.573 | 0.523 | 0.441
NCI-H647 | 0.749 | 0.545 | 0.681 | 0.172 | 0.143 | 1.14 | 1.19 | 0.914 |  | 0.951 | 1.22 | 0.978 | 1.41 | 0.461 | 0.0986 | 0.342 | 0.262 | 0.319 |  | 0.217
BEN | 1.03 | 1.35 | 1.13 | 0.832 | 0.782 | 1.09 | 1.02 | 0.935 | 0.662 | 1.04 | 0.0635 | 0.0753 | 0.0591 | 0.0599 | 0.053 | 0.537 | 0.611 | 0.481 | 0.377 | 0.486
201T | 0.859 | 0.905 | 0.958 | 0.822 | 0.79 | 1.01 | 1.04 | 1.1 | 1.06 | 1.04 | 1.23 | 1.17 | 1.19 | 1.17 | 1.08 | 0.951 | 0.929 | 0.988 | 0.977 | 0.938
LC-2-ad | 0.728 | 0.728 | 0.711 | 0.816 | 0.293 | 0.84 | 0.73 | 0.822 | 0.633 | 0.733 | 0.391 | 0.487 | 0.474 | 0.171 | 0.122 | 0.48 | 0.523 | 0.387 | 0.285 | 0.41
LCLC-97TM1 | 0.396 | 0.544 | 0.406 | 0.318 | 0.216 | 0.237 | 0.267 | 0.189 | 0.215 | 0.206 | 0.433 | 0.489 | 0.52 | 0.557 | 0.157 | 0.193 | 0.29 | 0.174 | 0.159 | 0.257
NCI-H1915 | 0.262 | 0.266 | 0.298 | 0.258 | 0.209 | 1.08 | 1.15 | 1.14 | 0.913 | 0.878 | 0.84 | 0.804 | 0.778 | 0.759 | 0.566 | 0.44 | 0.477 | 0.437 | 0.378 | 0.353
NCI-H3122 | 0.674 | 0.683 | 0.743 | 0.615 | 0.524 | 0.85 | 0.763 | 0.768 | 0.699 | 0.758 | 1.1 | 1.06 | 1.06 | 1.07 | 0.199 | 0.458 | 0.373 | 0.437 |  | 0.425
NCI-H1993 | 1.08 | 1.07 | 1.11 | 1.23 | 0.822 | 0.723 | 0.568 | 0.701 | 0.75 | 0.64 | 0.869 | 0.944 | 0.87 | 0.84 | 0.526 | 0.561 | 0.606 | 0.619 | 0.579 | 0.602
NCI-H2405 | 0.992 | 0.942 | 0.801 | 0.853 | 0.556 | 0.86 | 0.625 | 1.04 | 0.632 | 0.698 | 0.884 | 0.72 | 0.942 | 0.779 | 0.276 | 0.726 | 0.755 | 0.729 | 0.666 | 0.497
